The text below walks through data of US8404670B2 (Sunovion Pharmaceuticals Inc., priority 2009, dated 2013).

Structures are written as SMILES.

T1 sequence (Q9Y5N1 whole entry): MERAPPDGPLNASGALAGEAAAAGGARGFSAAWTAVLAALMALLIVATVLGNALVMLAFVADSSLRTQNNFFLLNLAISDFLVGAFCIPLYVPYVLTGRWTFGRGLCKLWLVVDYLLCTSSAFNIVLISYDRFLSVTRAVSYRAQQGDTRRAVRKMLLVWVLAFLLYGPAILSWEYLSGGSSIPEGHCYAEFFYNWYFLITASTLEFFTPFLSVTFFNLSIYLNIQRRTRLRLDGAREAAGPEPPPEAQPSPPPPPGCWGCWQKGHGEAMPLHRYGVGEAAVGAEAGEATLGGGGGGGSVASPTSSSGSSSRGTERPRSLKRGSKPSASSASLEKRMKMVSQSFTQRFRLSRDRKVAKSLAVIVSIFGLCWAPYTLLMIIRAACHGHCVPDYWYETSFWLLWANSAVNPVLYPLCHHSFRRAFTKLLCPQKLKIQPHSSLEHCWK

This experiment addresses T1, human histamine H3 receptor (Homo sapiens, UniProt Q9Y5N1).
T1 construct: host or cells: cells expressing the human H3 receptor
Kind of experiment: H3 GTPγS assay (SPA method), histamine H3 in vitro assay. It is filed as biochemical. The settings on record: GTPγ[35S] binding to membranes of cells expressing human H3; antagonist mode with R-γ-Me-Histamine at EC80 (30 nM); in one embodiment HCl salts tested; read-out: Potency (functional potency as indicated by IC50). The procedure: H3 GTPγS assay (SPA method) was performed at EuroScreen (Belgium, ES-392-C) using conventional methods. Briefly, cells expressing the human histamine H3 receptor were homogenized in 15 mM Tris-HCl pH 7.5, 2 mM MgCl2, 0.3 mM EDTA, and 1 mM EGTA. Membranes were washed twice in the above tris buffer, collected by centrifugation (40,000×g, 25 min), and re-suspended in 75 mM Tris-HCl pH 7.5, 12.5 mM MgCl2, 0.3 mM EDTA, 1 mM EGTA, and 250 mM sucrose. Membranes were frozen in liquid nitrogen until use. On the day of the assay, membranes were thawed and diluted in assay buffer (20 mM HEPES pH 7.4, 100 mM NaCl, 10 μg/ml saponin, 1 mM MgCl2) to give 500 μg/ml and mixed (v/v) with GDP in assay buffer for a final GDP concentration of 10 μM and incubated on ice for at least 15 min. PVT-WGA beads (Amersham, RPNQ001) were diluted in assay buffer at 50 mg/mL and mixed with GTPγ[^35S] (Amersham, SJ1308) diluted in assay buffer to give ˜25,000 dpm/10 μL and mixed vol/vol just before the start of the reaction. The reaction was started by adding 50 μL of test compound, 20 μL of the membranes:GDP mix, 10 μL of buffer, and 20 μL of the GTPγ[^35S]:beads mix in a 96 well plate Optiplate™ (PerkinElmer, 6005299) covered with topseal (TopCount™, PerkinElmer), mixed with an orbital shaker for 2 min, incubated for 1 hour at room temperature, centrifuged for 10 min at 2000 rpm, incubated for 1 h at room temperature, and counted for 1 min in a TopCount™ reader (PerkinElmer). Dose response curves and IC50 values (concentration to inhibit the reaction by 50%) were calculated by nonlinear regression using XLfit software (IDBS).
For antagonists testing, 10 μL of a reference agonist (R-γ-Me-Histamine) instead of 10 μL buffer was added at a concentration corresponding to the EC80 (30 nM). Control ligands were R-γ-Me-Histamine (Tocris, 0569), Imetit (Sigma, I-135), Thioperamide (Tocris, 0644), and Clobenpropit (Tocris, 0754) diluted in assay buffer.
The compounds provided herein were tested in the histamine H3 in vitro assay. In one embodiment, the respective HCl salts of the compounds provided herein were prepared using standard chemical procedures and tested in the histamine H3 in vitro assay.
A general note: Binding of GTPγS marks nucleotide exchange on a G protein.
`c1cnc(-c2ccc3c(c2)nc2n3CCN(C3CCC3)CC2)nc1` [Compound 123, 3-cyclobutyl-8-(pyrimidin-2-yl)-2,3,4,5-tetrahydro-1H-benzo[4,5]imidazo[1,2-d][1,4]diazepine]: the IC50 (usually the concentration needed to halve the response being measured) was no more than 100 nM. Consider `c1cc(-c2ccc3c(c2)nc2n3CCN(C3CCC3)CC2)ncn1` [Compound 124, 3-cyclobutyl-8-(pyrimidin-4-yl)-2,3,4,5-tetrahydro-1H-benzo[4,5]imidazo[1,2-d][1,4]diazepine], for which the IC50 was no more than 100 nM. Regarding `c1cnnc(-c2ccc3c(c2)nc2n3CCN(C3CCC3)CC2)c1` [Compound 125, 3-cyclobutyl-8-(pyridazin-3-yl)-2,3,4,5-tetrahydro-1H-benzo[4,5]imidazo[1,2-d][1,4]diazepine], the half-maximal inhibitory concentration (IC50) is no more than 100 nM. Consider `c1ncc(-c2ccc3c(c2)nc2n3CCN(C3CCC3)CC2)cn1` [Compound 126, 3-cyclobutyl-8-(pyrimidin-5-yl)-2,3,4,5-tetrahydro-1H-benzo[4,5]imidazo[1,2-d][1,4]diazepine], for which the IC50 was no more than 10 nM. Next, `c1cc(-c2ccc3c(c2)nc2n3CCN(C3CCC3)CC2)cnn1` [Compound 127, 3-cyclobutyl-8-(pyridazin-4-yl)-2,3,4,5-tetrahydro-1H-benzo[4,5]imidazo[1,2-d][1,4]diazepine]: no more than 100 nM. With `c1cc2c(cc1C1CCCN(C3CCC3)C1)nc1n2CCN(C2CCC2)CC1` (centres unmarked) [Compound 128, 3-cyclobutyl-8-(1-cyclobutylpiperidin-3-yl)-2,3,4,5-tetrahydro-1H-benzo[4,5]imidazo[1,2-d][1,4]diazepine] the figure was no more than 10 nM.

In the case of `c1cnc(N2CCCC(c3ccc4c(c3)nc3n4CCN(C4CCC4)CC3)C2)cn1` (centres unmarked) [Compound 129, 3-cyclobutyl-8-(1-(pyrazin-2-yl)piperidin-3-yl)-2,3,4,5-tetrahydro-1H-benzo[4,5]imidazo[1,2-d][1,4]diazepine], the 50% inhibitory concentration (IC50) is no more than 10 nM.

For the molecule `c1cnc(N2CCCC(c3ccc4c(c3)nc3n4CCN(C4CCC4)CC3)C2)nc1` (centres unmarked) [Compound 130, 3-cyclobutyl-8-(1-(pyrimidin-2-yl)piperidin-3-yl)-2,3,4,5-tetrahydro-1H-benzo[4,5]imidazo[1,2-d][1,4]diazepine], the IC50 was no more than 100 nM. In the case of `c1cc(-c2ccc3c(c2)nc2n3CCN(C3CCC3)CC2)nc(N2CCCC2)n1` [Compound 131, 3-cyclobutyl-8-(2-(pyrrolidin-1-yl)pyrimidin-4-yl)-2,3,4,5-tetrahydro-1H-benzo[4,5]imidazo[1,2-d][1,4]diazepine], the IC50 is no more than 10 nM. Turning to `COc1nccc(-c2ccc3c(c2)nc2n3CCN(C3CCC3)CC2)n1` [Compound 132, 3-cyclobutyl-8-(2-methoxypyrimidin-4-yl)-2,3,4,5-tetrahydro-1H-benzo[4,5]imidazo[1,2-d][1,4]diazepine], the half-inhibitory concentration (IC50) is no more than 100 nM.

With `c1cc2c(cc1-c1ccc(N3CCCC3)nn1)nc1n2CCN(C2CCC2)CC1` [Compound 133, 3-cyclobutyl-8-(6-(pyrrolidin-1-yl)pyridazin-3-yl)-2,3,4,5-tetrahydro-1H-benzo[4,5]imidazo[1,2-d][1,4]diazepine], the concentration for half-maximal inhibition (IC50) is no more than 100 nM. As for `COc1ccc(-c2ccc3c(c2)nc2n3CCN(C3CCC3)CC2)nn1` [Compound 134, 3-cyclobutyl-8-(6-methoxypyridazin-3-yl)-2,3,4,5-tetrahydro-1H-benzo[4,5]imidazo[1,2-d][1,4]diazepine], the IC50 was no more than 100 nM. `c1cc(-c2ccc3c(c2)nc2n3CCN(C3CCC3)CC2)nc(N2CCCC2)c1` [Compound 135, 3-cyclobutyl-8-(6-(pyrrolidin-1-yl)pyridin-2-yl)-2,3,4,5-tetrahydro-1H-benzo[4,5]imidazo[1,2-d][1,4]diazepine]: the IC50 was no more than 100 nM. Consider `CN1CCN(c2cccc(-c3ccc4c(c3)nc3n4CCN(C4CCC4)CC3)n2)CC1` [Compound 136, 3-cyclobutyl-8-(6-(4-methylpiperazin-1-yl)pyridin-2-yl)-2,3,4,5-tetrahydro-1H-benzo[4,5]imidazo[1,2-d][1,4]diazepine], for which the IC50 was no more than 100 nM. As for `COc1cccc(-c2ccc3c(c2)nc2n3CCN(C3CCC3)CC2)n1` [Compound 137, 3-cyclobutyl-8-(6-methoxypyridin-2-yl)-2,3,4,5-tetrahydro-1H-benzo[4,5]imidazo[1,2-d][1,4]diazepine], the IC50 is no more than 100 nM. Turning to `NCCc1ccc2c(c1)nc1n2CCN(C2CCC2)CC1` [Compound 138, 2-(3-cyclobutyl-2,3,4,5-tetrahydro-1H-benzo[4,5]imidazo[1,2-d][1,4]diazepin-8-yl)ethanamine], the IC50 is no more than 100 nM. For `CN(C)CCc1ccc2c(c1)nc1n2CCN(C2CCC2)CC1` [Compound 139, 2-(3-cyclobutyl-2,3,4,5-tetrahydro-1H-benzo[4,5]imidazo[1,2-d][1,4]diazepin-8-yl)-N,N-dimethylethanamine], the IC50 is no more than 100 nM.

For `NCc1ccc2c(c1)nc1n2CCN(C2CCC2)CC1` [Compound 140], the half-maximal inhibitory concentration (IC50) was no more than 100 nM. Next, `O=C(NCc1ccc2c(c1)nc1n2CCN(C2CCC2)CC1)OCc1ccccc1` [Compound 141, benzyl((3-cyclobutyl-2,3,4,5-tetrahydro-1H-benzo[4,5]imidazo[1,2-d][1,4]diazepin-8-yl)methyl)carbamate]: no more than 100 nM; `CN(Cc1ccc2c(c1)nc1n2CCN(C2CCC2)CC1)C(=O)OCc1ccccc1` [Compound 142, benzyl((3-cyclobutyl-2,3,4,5-tetrahydro-1H-benzo[4,5]imidazo[1,2-d][1,4]diazepin-8-yl)methyl)(methyl)carbamate]: no more than 100 nM.

Regarding `O=C1c2cc3nc4n(c3cc2C(=O)N1Cc1ccccc1)CCN(C1CCC1)CC4` [Compound 143, 2-benzyl-8-cyclobutyl-7,8,9,10-tetrahydro-[1,4]diazepino[1′,7′:1,2]imidazo[4,5-f]isoindole-1,3(2H,6H)-dione], the 50% inhibitory concentration (IC50) was no less than 1000 nM. Consider `c1ccc(CN2Cc3cc4nc5n(c4cc3C2)CCN(C2CCC2)CC5)cc1` [Compound 144, 2-benzyl-8-cyclobutyl-1,2,3,6,7,8,9,10-octahydro-[1,4]diazepino[1′,7′:1,2]imidazo[4,5-f]isoindole], for which the 50% inhibitory concentration (IC50) was no more than 10 nM.

Regarding `c1c2c(cc3c1nc1n3CCN(C3CCC3)CC1)CNC2` [Compound 145, 8-cyclobutyl-1,2,3,6,7,8,9,10-octahydro-[1,4]diazepino[1′,7′:1,2]imidazo[4,5-f]isoindole], the concentration for half-maximal inhibition (IC50) was no more than 10 nM. On to `CN1Cc2cc3nc4n(c3cc2C1)CCN(C1CCC1)CC4` [Compound 146, 8-cyclobutyl-2-methyl-1,2,3,6,7,8,9,10-octahydro-[1,4]diazepino[1′,7′:1,2]imidazo[4,5-f]isoindole], for which the IC50 was no more than 10 nM.

For `c1c2c(cc3c1nc1n3CCN(C3CCC3)CC1)CN(CC1CC1)C2` [Compound 147, 8-cyclobutyl-2-(cyclopropylmethyl)-1,2,3,6,7,8,9,10-octahydro-[1,4]diazepino[1′,7′:1,2]imidazo[4,5-f]isoindole], the IC50 was no more than 10 nM. Consider `c1cnc(N2Cc3cc4nc5n(c4cc3C2)CCN(C2CCC2)CC5)nc1` [Compound 148, 8-cyclobutyl-2-(pyrimidin-2-yl)-1,2,3,6,7,8,9,10-octahydro-[1,4]diazepino[1′,7′:1,2]imidazo[4,5-f]isoindole], for which the IC50 is no more than 100 nM.
